Experimental data reported in patent US20190046513A1, “COMBINATION THERAPIES OF HDAC INHIBITORS AND TUBULIN INHIBITORS” (HUYA Bioscience International, LLC, priority 2017, published 2019).
Where a name gives a salt, the structure may show the parent alone.

Columns and labels:
Type in all cases: in vivo, BALB/c mice
[1] = system: 4T1 murine mammary carcinoma cells; assay: Lung metastasis count, 4T1 tumor-bearing mice (Example 1, Study Group B); settings: Example 1, monotherapies; Day 14
Protocol: (§1) In the present example, HBI-8000 was tested as monotherapy at 50 mg/kg, and in combination with eribulin mesylate at 0.3 mg/kg and 1.0 mg/kg. The experiment included a vehicle-treated group, and eribulin at 0.3 mg/kg and 1.0 mg/kg, which served as the control groups for analysis of efficacy.
In the second group (Study Group B, tumor-bearing mice were monitored for the development of lung metastases until the number of metastatic nodules reached 30-50 per animal. All animals were euthanized on Day 14, the lungs removed and processed for analysis of metastatic burden.
where w=width and 1=length, in mm, of the tumor. Tumor weight may be estimated with the assumption that 1 mg is equivalent to 1 mm^3 of tumor volume. […]
Lung Metastasis: Animals were sacrificed at endpoint using isoflurane anesthesia and necropsies were performed to identify metastases. […] Percent inhibition was defined as the difference between the number of metastatic foci of the designated control group and the number of metastatic foci of the drug-treated group, expressed as a percentage of the number of metastatic foci of the designated control group: […]
Statistics: Prism (GraphPad) for Windows 6.07 was used for graphical presentations and statistical analyses. […] Logrank analysis includes the data for all animals in a group except those assessed as NTR deaths. […]

[2] = system: 4T1 murine mammary carcinoma cells; assay: Tumor growth delay, subcutaneous 4T1 tumors (Example 1, Study Group A); settings: for Median TTE: endpoint tumor volume 1000 mm^3, n=10; for % TGD: vs vehicle group
Protocol: as §1
Two study groups were used; in the first group (Study Group A) tumor growth inhibition and survival were measured. Tumors were measured twice per week until the study was ended on Day 21. Each animal was euthanized when its tumor attained the endpoint tumor volume of 1000 mm^3 or on the final day of the study, whichever came first, and the time to endpoint (TTE) for each mouse was calculated. Treatment response was determined from an analysis of percent tumor growth delay (% TGD), defined as the percent increase in the median time to endpoint (TTE) for treated versus control mice; and by log-rank significance of differences in survival among groups and regression responses.
Mice: Female BALB/c mice (Charles River Laboratories) were seven weeks old, with a body weight (BW) range of 15.6 to 20.2 grams on Day 1 of the study. The animals were fed ad libitum water (reverse osmosis, 1 ppm Cl), and NIH 31 Modified and Irradiated Lab Diet® consisting of 18.0% crude protein, 5.0% crude fat, and 5.0% crude fiber. The mice were housed on irradiated Enrich-O'Cobs™ Laboratory Animal Bedding in static microisolators on a 12-hour light cycle at 20-22° C. (68-72° F.) and 40-60% humidity.
Tumor Cells: 4T1 murine mammary carcinoma cells were maintained in Dulbecco's Modified Eagle Medium (DMEM) supplemented with 10% fetal bovine serum and 2 mM glutamine, 100 units/mL penicillin G sodium, 100 μg/mL streptomycin sulfate, and 25 μg/mL gentamicin. Cell cultures were maintained in tissue culture flasks in a humidified incubator at 37° C., in an atmosphere of 5% CO2 and 95% air.
(§2) Tumor Implantation: Cells were harvested during exponential growth, and resuspended in cold DMEM. Each mouse was inoculated subcutaneously in the right flank with 1×10^6 4T1 cells (0.1 mL of cell suspension). Tumors were calipered in two dimensions to monitor growth as their mean volume approached the desired 100-150 mm^3 range. Tumor burden was calculated using the formula:
where w=width and 1=length, in mm, of the tumor. Tumor weight may be estimated with the assumption that 1 mg is equivalent to 1 mm^3 of tumor volume. Nine days after tumor implantation, which was designated as Day 1 of the study, animals with individual tumor volumes from 108 to 126 mm^3 were sorted into treatment groups. For Study Group A the animals were sorted into 6 treatment groups (Table 1; n=10/group) with group mean tumor volume of 117 mm^3. For Study Group B the animals were also sorted into 6 treatment groups (Table 1; n=5/group) with group mean tumor volume of 117 mm^3.
Tumor Growth Delay: Tumors were measured using calipers twice per week, and each animal was euthanized when its tumor reached a volume of 1000 mm^3 or at the end of the study (D47), whichever came first. Animals that exited the study for tumor volume endpoint were documented as euthanized for tumor progression (TP), with the date of euthanasia. The time to endpoint (TTE) for analysis was calculated for each mouse by the following equation: […]
where TTE is expressed in days, endpoint volume is expressed in mm^3, b is the intercept, and m is the slope of the line obtained by linear regression of a log-transformed tumor growth data set. The data set consisted of the first observation that exceeded the endpoint volume used in analysis and the three consecutive observations that immediately preceded the attainment of this endpoint volume. The calculated TTE is usually less than the TP date, the day on which the animal was euthanized for tumor burden. […]

[3] = system: 4T1 murine mammary carcinoma cells; assay: Lung metastasis count, 4T1 tumor-bearing mice (Example 2); settings: HBI-8000 50 mg/kg p.o. qd×16, eribulin 1 mg/kg i.v., Day 18, FIG. 3
Protocol: (§3) In the present example, HBI-8000 was tested as monotherapy at 50 mg/kg, and in combination with eribulin mesylate at 1.0 mg/kg. The experiment included a vehicle-treated group, and eribulin at 1.0 mg/kg, which served as the control groups for analysis of efficacy.
Two study groups were used; in the first group, a sentinel group (termed LOOK-SEE) tumor-bearing mice were monitored for the development of lung metastases until the number of metastatic nodules reached 30-50 per animal. After meeting that criteria, all animals in Group B, the main study group, were euthanized on Day 18, the lungs removed and processed for analysis of metastatic burden.
as §2, with “0.5×10^6” for “1×10^6”
where w=width and 1=length, in mm, of the tumor. Tumor weight may be estimated with the assumption that 1 mg is equivalent to 1 mm3 of tumor volume. […]

[4] = system: 4T1 murine mammary carcinoma cells; assay: Primary tumor volume distribution, 4T1 tumor-bearing mice (Example 2); settings: HBI-8000 50 mg/kg p.o. qd×16, eribulin 1 mg/kg i.v., FIG. 4
Protocol: as §3
as §2, with “0.5×10^6” for “1×10^6”
where w=width and 1=length, in mm, of the tumor. Tumor weight may be estimated with the assumption that 1 mg is equivalent to 1 mm3 of tumor volume. Fourteen days after tumor implantation, which was designated as Day 1 of the study, animals with individual tumor volumes from animals with individual tumor volumes ranging from 75 to 108 mm3 were sorted into the “LOOK-SEE” group (n=15) and eight efficacy groups (n=10) with group mean tumor volumes of 95 mm3.
Treatment: On Day 1 of the study, mice bearing established 4T1 tumors began dosing according to the treatment plan described below. All agents were administered in dosing volumes of 10 mL/kg; volumes were adjusted according to BW of the individual animal. […]

[5] = Eribulin mesylate 0.3 mg/kg i.v., qowk × 2
[6] = Eribulin mesylate 1.0 mg/kg i.v., qowk × 2
[7] = HBI-8000 50 mg/kg p.o., qd × 21

| SMILES | number of lung metastatic foci [1] | Median TTE [2, 5] [days] | % TGD [2, 5] [%] | Median TTE [2, 6] [days] | % TGD [2, 6] [%] | metastatic lung foci [3] | primary tumor volume distribution [4] | tumor volume distribution ([2]; Example 1, HBI-8000 monotherapy 50 mg/kg, P<0.01) | Median TTE [2, 7] [days] | % TGD [2, 7] [%] |
| --- | --- | --- | --- | --- | --- | --- | --- | --- | --- | --- |
| C=C1C[C@@H]2CC[C@@]34C[C@H]5O[C@H]6[C@@H](O3)[C@H]3OC(CC[C@@H]3O[C@H]6C5O4)CC(=O)C[C@@H]3[C@@H](OC)[C@@H](C[C@H](O)CN)O[C@H]3CC3O[C@@H](CCC1O2)C[C@@H](C)C3=C [Eribulin mesylate, 11,15:18,21:24,28 Triepoxy-7,9-ethano-12,15-methano-9H, 15H-furo[3,2-i]furo[2′,3′: 5,6]pyrano[4,3b][1,4]dioxacyclopentacosin-5(4H)-one,2-[(2S)-3-amino-2-hydroxypropyl]hexacosahydro-3 methoxy-26-methyl-20,27-bis(methylene)-, (2R,3R,3aS,7R,8aS,9S,10aR,11S,12R,13aR,13bS,15S,18S,21 S,24S,26R,28R,29aS)-, methanesulfonate (salt)] | did not significantly inhibit the number of lung metastatic foci | 17.8 | 6 | 17.6 | 5 | did not produce a statistically significant decrease in metastatic lung foci | did not produce a statistically significant decrease in primary tumor volume distribution | – | – | – |
| Nc1cc(F)ccc1NC(=O)c1ccc(CNC(=O)/C=C/c2cccnc2)cc1 [HBI-8000, N-(2-amino-4-fluorophenyl)-4-[[[(2E)-1-oxo-3-(3-pyridinyl)-2-propen-1-yl]amino]methyl]benzamide] | did not significantly inhibit the number of lung metastatic foci | – | – | – | – | statistically significant (P<0.05) decrease in metastatic lung foci | statistically significant (P<0.001) decrease in primary tumor volume distribution compared to vehicle controls | significant ((P<0.01) reduction in the tumor volume distribution | 18.8 | 12 |
